The text below walks through data of paper PMC8867573 (ACS Omega, 2022).

The target of test [1] is T1, ScSLAC (small laccase, SLAC) (Streptomyces coelicolor, UniProt Q9XAL8).
T1 sequence (Q9XAL8 34-343): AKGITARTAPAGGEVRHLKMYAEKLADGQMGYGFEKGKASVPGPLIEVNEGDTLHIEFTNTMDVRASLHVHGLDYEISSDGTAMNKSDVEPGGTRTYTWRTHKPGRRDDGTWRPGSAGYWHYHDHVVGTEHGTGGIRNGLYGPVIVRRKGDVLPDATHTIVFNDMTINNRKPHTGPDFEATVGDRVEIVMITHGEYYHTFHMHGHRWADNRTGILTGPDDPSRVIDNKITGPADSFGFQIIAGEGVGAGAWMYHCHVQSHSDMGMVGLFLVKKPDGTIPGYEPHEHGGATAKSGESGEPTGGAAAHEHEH
Description: spectrophotometric oxidation, […] nm, Michaelis-Menten or substrate inhibition fit. To be noted: read-out: Pyrogallol; pH 8.5, 42 °C; 0.025-1 mM substrate.

In test [2] the target is T1, ScSLAC (small laccase, SLAC). The test is described as above. Type of test: biochemical. The following applies: read-out: DMP; pH 8.0, 42 °C; 0.25-15 mM substrate.

Molecules are shown by their SMILES. Read-outs that look alike come from different tables or passages of the source.

Consider `Oc1cccc(O)c1O` [Pyrogallol], for which, in test [1], the Km stood at 200 ± 60 µM.

As for `COc1cccc(OC)c1O` [DMP, 2,6-dimethoxyphenol], the Km in test [2] worked out at 1100 ± 60 µM.
